Test results as given in US7803792B2, “Quaternary ammonium compounds” (Asahi Kasei Pharma Corporation, priority 2002, dated 2010).

Experiments:
[1] = system: bile acid loaded rats without partial ligation surgery; test: Cholestasis-caused hepatopathy model, bile acid loading without partial ligation, protocol B (Test Example 5); assay type: in vivo, rat; conditions: 0.1 mg/kg twice a day 3.5 days, distilled water, average ± standard error
Experimental: “Cholestasis-Caused Hepatopathy” Model (Bile Duct Partial Ligation Model)
The “cholestasis-caused hepatopathy” model by partial ligation surgery of bile duct in this test example was handled by referring to the method by Kanno et al. [Kanzo (Liver) 43 Suppl (1): A126, 2002].
That is, the abdomen of a 7 to 10 weeks old SD (IGS) male rat was cut open under anesthesia with pentobarbital and partial ligation surgery of the bile duct was carried out. A blood sample was taken from the femoral vein before the surgery and this was taken as pre-administration value. The test compound and 200 mg/kg of bile acid were forcibly orally administered twice a day for 3.5 days from the next day of the surgery (protocol A). The test compound and 200 mg/kg of bile acid were forcibly orally administered twice a day for 3.5 days without carrying out the partial ligation surgery (protocol B). In both the cases, the test compound was dissolved or suspended in distilled water or an aqueous solution of 1% HCO60 (manufactured by NIPPON CHEMICALS COMPANY, LTD.). […] Moreover, to consider the influence of the surgery, a pseudo operation group (a Sham group) was established as necessary. After 6 hours from the administration of the drug on the last day of the test, a blood sample was taken from the abdominal aorta and AST (GOT), ALT (GPT), and ALP in the blood were measured by using a measurement kit (GOTII-HA TEST WAKO, GPTII-HA TEST WAKO, and ALKALINE PHOSPHER-HA TEST WAKO respectively, all manufactured by WAKO PURE CHEMICAL […], LTD.) with an auto analyzer (NITTECH ANALYZER SUPER Z818).

[2] = system: Na+ dependent amino acid transporter; test: In vitro assay on Na+ dependent amino acid transporter using Cos 7 cells (Test Example 10); assay type: cell-based; conditions: [3H] alanine 8 μM, 37° C., 60 minutes, read-out: IC50 (μM) against alanine transporter
Experimental: In Vitro Assay of Effects of Compounds on Na^+ Dependent Amino Acid Transporter and Na^+ Dependent Water-Soluble Vitamin Transporter Using Cos 7 Cells
In this test example, the in vitro assays of the compound on various transporters using Cos 7 cells were carried out according to the method described in Published Translation of Japanese Patent Application No.10-503830.
That is, […] of Cos 7 cells were inoculated on a 24-well cell plate. Two days later, the cells were washed once with an assay buffer, Hank's buffer solution containing 25 mM glucose and with 10 mM HEPES (ph 7.4), and then the buffer was replaced by an assay buffer to which the test compound was added. After adding to this, [^3H] alanine (trade name; NET-348, manufactured by DAIICHI CHEMICAL CO., LTD.), [^3H] leucine (trade name: NET-460, manufactured by DAIICHI CHEMICAL CO., LTD.), [^3H] phenylalanine (trade name: MT903, MORAVEK), [^3H] methionine (trade name: MT862, MORAVEK), [^3H] lysine (trade name: MT909, MORAKEK), or [^3H] choline (trade name: TRK593, […] BIOSCIENCES CO., LTD.) to a final concentration of 8 μM, the mixture was incubated at 37° C. for 60 minutes to allow Cos 7 cells to incorporate them. […] Measurement of the radioactivity was carried out by introducing the lyzate in 4 ml of liquid scintillation cocktail, stirring the mixture well, and then measuring on a liquid scintillation counter. […]

CCCCC1(CCCC)CS(=O)(=O)c2ccc(N(C)C)cc2C(c2cccc(NC(=S)CCCCC[N+]34CCC(CC3)CC4)c2)N1.[Br-] (stereo not shown) [Example 1, 1-{5-[3-(3,3-Dibutyl-7-dimethylamino-1,1-dioxo-2,3,4,5-tetrahydro-1,4-benzothiazepin-5-yl)phenylthiocarbamoyl]pentyl}-1-azoniabicyclo[2.2.2]octane bromide]
ALT ([1]; control 82 ± 17): 53 ± 6 IU/L
AST ([1]; control 157 ± 35): 100 ± 2 IU/L
ALP ([1]; control 593 ± 77): 453 ± 50 IU/L
IC50 [2]: 33 µM
